Reference: article PMC12196347, “Evaluating Triazole-Substituted Pyrrolopyrimidines as CSF1R Inhibitors” (Molecules, 2025)
In brackets after ≈: the same amount, converted by molar mass.

Columns and labels:
[1] = molecular target: T1, CSF1R (Homo sapiens, UniProt P07333); test: CSF1R enzymatic inhibition, TR-FRET-based LANCE Ultra assay; format: biochemical; settings: single 8-point titrations, ATP concentration 25 µM, read-out: Enz. IC50
T1 sequence (P07333 539-972 limits assumed): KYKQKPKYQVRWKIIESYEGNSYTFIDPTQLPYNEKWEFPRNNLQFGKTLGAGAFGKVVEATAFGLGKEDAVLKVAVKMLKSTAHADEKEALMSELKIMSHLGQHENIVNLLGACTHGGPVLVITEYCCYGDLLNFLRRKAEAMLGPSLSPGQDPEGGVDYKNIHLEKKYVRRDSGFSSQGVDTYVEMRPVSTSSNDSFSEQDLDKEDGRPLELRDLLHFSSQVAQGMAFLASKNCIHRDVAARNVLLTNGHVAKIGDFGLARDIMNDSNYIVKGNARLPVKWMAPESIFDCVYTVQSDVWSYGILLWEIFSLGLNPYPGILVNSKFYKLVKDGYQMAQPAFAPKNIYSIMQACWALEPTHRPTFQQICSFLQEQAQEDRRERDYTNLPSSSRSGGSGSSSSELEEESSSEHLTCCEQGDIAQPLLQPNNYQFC

[2] = system: CSF1R Ba/F3 cells; test: Cell viability assay, Ba/F3 cells engineered to be dependent on CSF1R; format: cell-based; settings: duplicate measurements
[3] = system: IL-3 dependent Ba/F3 cell line (CSF1R independent); test: Control assay for cellular toxicity, Ba/F3 cells dependent on IL-3; format: cell-based; settings: Mus musculus, BaF3; Ba/F3 cells dependent on IL-3, control for cellular toxicity
[4] = Kinetic solubility, spectrophotometric; format: physicochemical; settings: aqueous buffer, kinetic from dmso stock, spectrophotometrically at pH 7.4 in HEPES buffer
[5] = molecular target: CSF1R (Homo sapiens, UniProt P07333); test: CSF1R enzymatic IC50, Z-LYTE assay platform; format: biochemical; settings: for Hill coefficient: Z-LYTE CSF1R IC50 curve; for IC50: Z-LYTE, 10-point titrations in duplicates, ATP equal to KM ca. 10 µM, read-out: CSF1R enz. IC50
Target sequence in this assay (P07333 20-972): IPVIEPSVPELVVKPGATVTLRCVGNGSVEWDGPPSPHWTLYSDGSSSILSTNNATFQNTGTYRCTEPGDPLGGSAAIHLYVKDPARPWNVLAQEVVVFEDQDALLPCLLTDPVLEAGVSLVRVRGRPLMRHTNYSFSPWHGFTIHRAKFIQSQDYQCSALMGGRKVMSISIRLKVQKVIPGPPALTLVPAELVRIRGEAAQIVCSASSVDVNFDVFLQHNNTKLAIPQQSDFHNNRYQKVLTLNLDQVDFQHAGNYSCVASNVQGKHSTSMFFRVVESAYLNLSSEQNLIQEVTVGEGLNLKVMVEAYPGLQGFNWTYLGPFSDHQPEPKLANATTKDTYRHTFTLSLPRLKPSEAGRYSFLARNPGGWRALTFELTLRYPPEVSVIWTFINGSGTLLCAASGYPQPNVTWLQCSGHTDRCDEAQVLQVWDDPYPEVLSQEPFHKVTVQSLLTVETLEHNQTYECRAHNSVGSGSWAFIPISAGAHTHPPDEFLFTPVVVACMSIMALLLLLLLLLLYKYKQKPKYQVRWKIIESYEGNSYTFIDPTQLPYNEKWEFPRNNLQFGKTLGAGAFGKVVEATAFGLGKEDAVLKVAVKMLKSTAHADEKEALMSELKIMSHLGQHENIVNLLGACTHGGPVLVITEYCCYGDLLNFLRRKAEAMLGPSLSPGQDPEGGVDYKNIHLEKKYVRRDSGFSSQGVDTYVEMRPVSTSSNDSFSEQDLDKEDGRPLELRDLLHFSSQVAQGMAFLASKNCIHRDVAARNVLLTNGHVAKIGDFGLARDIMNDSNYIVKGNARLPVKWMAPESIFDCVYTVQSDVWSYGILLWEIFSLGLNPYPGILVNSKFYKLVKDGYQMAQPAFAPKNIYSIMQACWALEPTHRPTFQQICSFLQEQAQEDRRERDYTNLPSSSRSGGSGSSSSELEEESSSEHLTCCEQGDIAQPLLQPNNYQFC

[6] = molecular target: T2, cKIT kinase (Homo sapiens, UniProt P10721); test: KIT inhibition (KD), TR-FRET tracer displacement; format: binding; settings: kinase tracer 236, anti-GST antibody Eu-conjugate, read-out: KIT enz. KD
T2 construct: purchased Carna Biosciences

[7] = system: KIT-positive cell line GIST-T1; test: GIST-T1 CellTiter-Glo cell viability assay; format: cell-based; settings: Homo sapiens, GISTT1; cellular proliferation, GIST-T1, 72 h
[8] = Human liver microsome intrinsic clearance, Phase I; format: in vitro ADME; settings: in vitro intrinsic clearance
[9] = Mouse liver microsome intrinsic clearance, Phase I; format: in vitro ADME; settings: in vitro intrinsic clearance
[10] = MDCK permeability assay; format: in vitro ADME, canine; settings: dog, MDCK cell monolayer; for Papp A→B: A-B direction; for Papp B→A: B-A direction; for efflux ratio: read-out: Ratio Papp B > A/Papp A > B
[11] = Mouse plasma protein binding; format: in vitro ADME; settings: fraction bound, read-out: PPB (converted)
[12] = Caco-2 permeability assay; format: in vitro ADME; settings: human; Caco-2 cell assay
[13] = Mus musculus, BaF3, Ba/F3 cells dependent on CSF1R

T2 sequence (P10721 26-976): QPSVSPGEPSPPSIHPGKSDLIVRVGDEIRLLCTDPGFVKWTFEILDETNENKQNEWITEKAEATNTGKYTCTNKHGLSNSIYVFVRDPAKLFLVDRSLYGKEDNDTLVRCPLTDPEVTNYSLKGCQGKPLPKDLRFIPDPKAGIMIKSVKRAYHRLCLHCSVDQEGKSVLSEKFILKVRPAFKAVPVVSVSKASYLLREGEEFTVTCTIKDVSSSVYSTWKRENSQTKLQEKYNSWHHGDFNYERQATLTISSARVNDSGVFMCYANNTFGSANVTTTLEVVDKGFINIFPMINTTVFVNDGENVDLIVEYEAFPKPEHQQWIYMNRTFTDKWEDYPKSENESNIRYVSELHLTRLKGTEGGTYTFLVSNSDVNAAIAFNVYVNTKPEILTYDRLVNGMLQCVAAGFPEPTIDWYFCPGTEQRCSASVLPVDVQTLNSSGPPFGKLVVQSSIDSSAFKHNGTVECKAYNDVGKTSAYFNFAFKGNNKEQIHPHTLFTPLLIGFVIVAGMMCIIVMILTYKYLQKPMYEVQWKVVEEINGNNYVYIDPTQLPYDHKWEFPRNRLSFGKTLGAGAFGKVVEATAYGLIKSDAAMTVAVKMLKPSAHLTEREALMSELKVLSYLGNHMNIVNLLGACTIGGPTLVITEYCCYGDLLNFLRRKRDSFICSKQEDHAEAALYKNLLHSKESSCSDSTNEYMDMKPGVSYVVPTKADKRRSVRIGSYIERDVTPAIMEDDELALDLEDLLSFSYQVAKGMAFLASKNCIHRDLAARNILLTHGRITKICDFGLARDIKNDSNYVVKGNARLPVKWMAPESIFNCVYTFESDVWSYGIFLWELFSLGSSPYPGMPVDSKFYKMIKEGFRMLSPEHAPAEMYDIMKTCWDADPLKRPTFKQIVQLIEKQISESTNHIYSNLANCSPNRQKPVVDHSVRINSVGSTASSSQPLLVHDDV

IC50 [1]	IC50 [2, 13]	solubility kinetic [4]	fraction unbound [11]	SMILES	IC50 [3]	other results
3 nM	600 ± 200 nM	7.3 µM (≈ 3.06 µg/mL)	0.24	COc1ccc(-n2cc(-c3cc4c(N(C)CC5CCOCC5)ncnc4[nH]3)nn2)cc1 [Compound 21b, 6-(1-(4-Methoxyphenyl)-1H-1,2,3-triazol-4-yl)-N-methyl-N-((tetrahydro-2H-pyran-4-yl)methyl)-7H-pyrrolo[2,3-d]pyrimidin-4-amine]	> 10000 nM	Hill coefficient [5]: 0.913; IC50 [5]: 1.2 ± 0.3 nM; Kd [6]: > 1000 nM; IC50 [7]: > 30000 nM; HLM [8]: 74.5 µL/min/mg; MLM [9]: 288 µL/min/mg; Papp A→B [10]: 10.7 ×10⁻⁶ cm/s; Papp B→A [10]: 13.6 ×10⁻⁶ cm/s; efflux ratio [10]: 1.3
1.8 nM	1700 ± 100 nM	43 µM (≈ 17.4 µg/mL)	< 0.01	CN(CC1CCOCC1)c1ncnc2[nH]c(-c3cn(Cc4cccnc4)nn3)cc12 [Compound 27b, N-Methyl-6-(1-(pyridin-3-ylmethyl)-1H-1,2,3-triazol-4-yl)-N-((tetrahydro-2H-pyran-4-yl)methyl)-7H-pyrrolo[2,3-d]pyrimidin-4-amine]	> 10000 nM	
< 1 nM	1000 nM	10.6 µM (≈ 4.43 µg/mL)	0.025	Cc1ccc(Cn2cc(-c3cc4c(N(C)CC5CCOCC5)ncnc4[nH]3)nn2)cc1 [Compound 25b, N-Methyl-6-(1-(4-methylbenzyl)-1H-1,2,3-triazol-4-yl)-N-((tetrahydro-2H-pyran-4-yl)methyl)-7H-pyrrolo[2,3-d]pyrimidin-4-amine]	> 10000 nM	IC50 ([2]; Ba/F3 cells dependent on CSF1R): 500 nM; Hill coefficient [5]: 0.981; IC50 [5]: 1.3 nM; Kd [6]: > 100 nM; IC50 [7]: > 3000 nM; HLM [8]: 62.4 µL/min/mg; MLM [9]: 1980 µL/min/mg; Papp A→B [10]: 10 ×10⁻⁶ cm/s; Papp B→A [10]: 25.4 ×10⁻⁶ cm/s; efflux ratio [10]: 2.6
				Cc1cccc(CN(C)c2ncnc3[nH]c(-c4ccc(CO)cc4)cc23)c1 [Structure III]		Papp A→B [12]: 0.69 ×10⁻⁶ cm/s; Papp B→A [12]: 0.19 ×10⁻⁶ cm/s
2.3 nM	1200 ± 200 nM	11 µM (≈ 4.36 µg/mL)		Cc1cccc(CN(C)c2ncnc3[nH]c(-c4cn(-c5cccnc5)nn4)cc23)c1 [Compound 22a, N-Methyl-N-(3-methylbenzyl)-6-(1-(pyridin-3-yl)-1H-1,2,3-triazol-4-yl)-7H-pyrrolo[2,3-d]pyrimidin-4-amine]	> 10000 nM	
			0.236	CN(CC1CCOCC1)c1ncnc2[nH]c(-c3ccc(N)cc3)cc12 [Structure IV, reference compound]		
< 1 nM	2400 ± 500 nM	42 µM (≈ 17.2 µg/mL)		CN1CCC(n2cc(-c3cc4c(N(C)CC5CCOCC5)ncnc4[nH]3)nn2)CC1 [Compound 30b, N-Methyl-6-(1-(1-methylpiperidin-4-yl)-1H-1,2,3-triazol-4-yl)-N-((tetrahydro-2H-pyran-4-yl)methyl)-7H-pyrrolo[2,3-d]pyrimidin-4-amine]	> 10000 nM	
< 1 nM	1500 ± 500 nM	7.2 µM (≈ 3.12 µg/mL)		COc1ccc(Cn2cc(-c3cc4c(N(C)CC5CCOCC5)ncnc4[nH]3)nn2)cc1 [Compound 26b, 6-(1-(4-Methoxybenzyl)-1H-1,2,3-triazol-4-yl)-N-methyl-N-((tetrahydro-2H-pyran-4-yl)methyl)-7H-pyrrolo[2,3-d]pyrimidin-4-amine]	> 10000 nM	
5.8 nM	2800 ± 300 nM	4.6 µM (≈ 2.02 µg/mL)		COc1ccc(Cn2cc(-c3cc4c(N(C)Cc5cccc(C)c5)ncnc4[nH]3)nn2)cc1 [Compound 26a, 6-(1-(4-Methoxybenzyl)-1H-1,2,3-triazol-4-yl)-N-methyl-N-(3-methylbenzyl)-7H-pyrrolo[2,3-d]pyrimidin-4-amine]	> 10000 nM	
2.1 nM	1600 ± 300 nM	37 µM (≈ 14.4 µg/mL)		CN(CC1CCOCC1)c1ncnc2[nH]c(-c3cn(-c4cccnc4)nn3)cc12 [Compound 22b, N-Methyl-6-(1-(pyridin-3-yl)-1H-1,2,3-triazol-4-yl)-N-((tetrahydro-2H-pyran-4-yl)methyl)-7H-pyrrolo[2,3-d]pyrimidin-4-amine]	> 10000 nM	

SMILES	IC50 [1]	IC50 [2, 13]	solubility kinetic [4]	fraction unbound [11]	IC50 [3]	other results
FC(F)(F)c1ccc(CNc2ccc(Cc3c[nH]c4ncc(Cl)cc34)cn2)cn1 [PLX-3397, pexidartinib, reference compound]		60 ± 100 nM		< 0.01	> 10000 nM	Hill coefficient [5]: 1.18; IC50 [7]: 30 nM
